# Measurements published in patent US12152038B2, “Vasopressin receptor antagonists and products and methods related thereto” (Neumora Therapeutics, Inc., priority 2017, dated 2024).
# Read-outs that look alike come from different tables or passages of the source.
# Molecular target: T1, MDR1 (P-glycoprotein) (Homo sapiens, UniProt P08183)
# T1 construct: host or cells: MDCK (MDR1-MDCK; wild-type MDCK as comparator)
# Experiment: MDR1-MDCK permeability and efflux assay (Papp, efflux ratio, effective efflux ratio)
# Assay type: in vitro ADME
# Conditions: dog; for Papp A→B at 1 h, 10 μM: pH 7.4, read-out: Papp AB MDR1
# Protocol: The MDR1-MDCK effective efflux assay was performed as described in the BioFocus Standard Operating Procedure, ADME-SOP-56. Both wild-type (WT) and MDR1-MDCK cells (Solvo Biotechnology) were seeded onto 24-well Transwell plates at 2.35×10^5 cells per well and used in confluent monolayers after a 3 day culture at 37° C. under 5% CO2. For both cell types, test and control compounds (propranolol, vinblastine) were added (10 μM, 0.1% DMSO final, n=2) to donor compartments of the Transwell plate assembly in assay buffer (Hanks balanced salt solution supplemented with 25 mM HEPES, adjusted to pH 7.4) for both apical to basolateral (A>B) and basolateral to apical (B>A) measurements. Incubations were performed at 37° C., with samples removed from both donor and acceptor chambers at T=0 and 1 hour and compound analysed by mass spectrometry (LC-MS/MS) including an analytical internal standard.
# Apparent permeability (Papp) values were determined from the relationship: Papp=[CompoundAcceptor T=end]×V Acceptor/([Compound Donor T=0]×V Donor)/incubation time×V Donor/Area×60×10^−6 cm/s
# In this equation, V is the volume of each Transwell compartment (apical 125 μL, basolateral 600 μL), and concentrations are the relative MS responses for compound (normalized to internal standard) in the donor chamber before incubation and acceptor chamber at the end of the incubation, and Area is the area of cells exposed for drug transfer (0.33 cm^2).
# Efflux ratios (Papp B>A/Papp A>B) were calculated for each compound from the mean Papp values in each direction for both wild-type and MDR1-MDCK cells.
# In order to confirm the involvement of MDR1 in any efflux seen, an “effective efflux ratio” (EER) was calculated by comparing compound efflux ratios (ER) in the two cell types by the following equation: EER=ER(MDR1-MDCK)/ER(wild-type MDCK)
# This ratio illustrates the effect of the over-expressed MDR1 normalised for the background movement of compound through the wild-type cells.
# Lucifer Yellow (LY) was added to the apical buffer in all wells to assess viability of the cell layer. […] Recoveries<50% indicates compound solubility, stability or binding issues, thereby reducing the reliability of a result.
# The inherent ability of a potential drug molecule to penetrate the blood brain barrier and avoid efflux by transporters expressed in the brain, can be roughly correlated with the Papp(A-B) and the efflux ratio (as defined above), respectively. A potential drug molecule with an apparent permeability<7 (10^−6 cm/sec) has low permeability (+), >7 (10^−6 cm/sec) but <10 (10^−6 cm/sec) has moderate permeability (++), >10 (10^−6 cm/sec) but <20 (10^−6 cm/sec) has good permeability (+++), and >20 (10^−6 cm/sec) is highly permeable (++++). High permeability in the WT and MDCK II cell permeability assay increases the probability of blood brain barrier penetration and access to the CNS. A potential drug molecule in the above assay system with an efflux ratio or effective efflux ratio of <1 has low probability of being an efflux substrate (++++), >1 but <2 has moderate probability of being an efflux substrate (+++), >2 but <3 has has an increased probability of being an efflux substrate (++), and >3 has a high probability of being an efflux substrate (+). If a potential drug molecule is an efflux substrate, the molecule will have a low probability of reaching exposures in the brain (site of action) that will result in efficacious levels of receptor occupancy.
# [1] = MDCK-MDR1, pH 7.4, ER(MDR1-MDCK)/ER(wild-type MDCK), read-out: EER (Effective Efflux Ratio)
# [2] = MDCK-MDR1, pH 7.4, Papp B>A/Papp A>B, MDR1-MDCK cells, read-out: ER MDR1 (Efflux Ratio)
# T1 sequence (P08183 whole entry): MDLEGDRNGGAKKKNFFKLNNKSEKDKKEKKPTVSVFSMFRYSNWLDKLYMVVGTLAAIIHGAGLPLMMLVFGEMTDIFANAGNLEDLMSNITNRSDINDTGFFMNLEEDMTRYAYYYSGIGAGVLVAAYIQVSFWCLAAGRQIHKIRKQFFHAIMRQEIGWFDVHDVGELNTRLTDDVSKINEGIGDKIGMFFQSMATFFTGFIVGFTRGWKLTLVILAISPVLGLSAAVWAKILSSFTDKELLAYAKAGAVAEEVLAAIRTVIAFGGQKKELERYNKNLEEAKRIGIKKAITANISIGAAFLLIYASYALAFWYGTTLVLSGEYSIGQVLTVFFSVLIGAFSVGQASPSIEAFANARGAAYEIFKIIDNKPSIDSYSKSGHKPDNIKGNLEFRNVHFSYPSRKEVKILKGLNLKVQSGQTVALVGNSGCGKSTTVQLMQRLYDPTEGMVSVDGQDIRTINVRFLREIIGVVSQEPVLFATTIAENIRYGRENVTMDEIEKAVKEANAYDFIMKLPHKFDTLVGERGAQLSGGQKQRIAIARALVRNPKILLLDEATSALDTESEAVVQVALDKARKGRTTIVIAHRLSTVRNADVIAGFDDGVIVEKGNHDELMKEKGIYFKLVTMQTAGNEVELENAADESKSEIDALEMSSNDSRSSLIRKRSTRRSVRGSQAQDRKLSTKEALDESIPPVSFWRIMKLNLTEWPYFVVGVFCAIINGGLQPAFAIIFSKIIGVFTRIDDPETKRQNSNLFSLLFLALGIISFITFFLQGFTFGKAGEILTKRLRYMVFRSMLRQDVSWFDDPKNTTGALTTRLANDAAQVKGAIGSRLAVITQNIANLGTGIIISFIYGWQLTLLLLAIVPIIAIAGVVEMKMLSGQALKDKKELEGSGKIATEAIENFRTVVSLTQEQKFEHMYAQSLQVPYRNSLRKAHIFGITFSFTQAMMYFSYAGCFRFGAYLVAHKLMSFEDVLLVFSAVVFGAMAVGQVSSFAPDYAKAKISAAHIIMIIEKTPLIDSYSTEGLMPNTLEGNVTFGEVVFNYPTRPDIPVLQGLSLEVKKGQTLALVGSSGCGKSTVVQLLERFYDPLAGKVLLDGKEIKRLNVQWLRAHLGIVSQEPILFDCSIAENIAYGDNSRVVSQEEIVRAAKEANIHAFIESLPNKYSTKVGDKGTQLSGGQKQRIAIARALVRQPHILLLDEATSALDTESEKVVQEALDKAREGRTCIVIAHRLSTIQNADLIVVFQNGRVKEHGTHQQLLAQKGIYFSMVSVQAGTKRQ
SMILES,"efflux ratio at 1 h, 10 μM [1]","efflux ratio at 1 h, 10 μM [2]","Papp A→B at 1 h, 10 μM (MDR1-MDCK cells) [×10⁻⁶ cm/s]"
"CC1COc2cc(F)ccc2N1C(=O)N1CC2(C1)CN(c1noc3ccccc13)C2 (single isomer, unassigned) [4-3-B]",< 1,< 1,> 20
"CC1COc2cc(Cl)ccc2N1C(=O)N1CC2(C1)CN(c1cccnn1)C2 (single isomer, unassigned) [9-1-B]",2 to 3,> 3,> 20
"O=C(N1CC2(C1)CN(c1ccc(F)cn1)C2)N1CCC(O)c2cc(Cl)ccc21 (single isomer, unassigned) [13-1-A]",> 3,> 3,> 20
"O=C(N1CC2(C1)CN(c1ccccn1)C2)N1CCC(O)c2cc(Cl)ccc21 (single isomer, unassigned) [13-2-B]",> 3,> 3,> 20
"CC1COc2cc(Cl)ccc2N1C(=O)N1CC2(C1)CN(c1noc3cccnc13)C2 (single isomer, unassigned) [18-3-B]",< 1,< 1,> 20
"CC1COc2cc(F)c(F)cc2N1C(=O)N1CC2(C1)CN(c1ncccn1)C2 (single isomer, unassigned) [19-1-B]",< 1,1 to 2,> 20
"CC1COc2cc(Cl)c(F)cc2N1C(=O)N1CC2(C1)CN(c1ncccn1)C2 (single isomer, unassigned) [19-2-B]",< 1,1 to 2,> 20
"CC1COc2cc(Cl)c(F)cc2N1C(=O)N1CC2(C1)CN(c1cccnn1)C2 (single isomer, unassigned) [19-4-A]",2 to 3,2 to 3,> 20
"Cc1cncc(N2CC3(CN(C(=O)N4c5ccc(F)cc5OCC4C)C3)C2)n1 (single isomer, unassigned) [20-2-A]",1 to 2,1 to 2,> 20
"CC1COc2cc(F)ccc2N1C(=O)N1CC2(C1)CN(c1cc(C#N)ccn1)C2 (single isomer, unassigned) [20-3-B]",1 to 2,1 to 2,> 20
"Cc1ccnc(N2CC3(CN(C(=O)N4c5ccc(F)cc5OCC4C)C3)C2)c1 (single isomer, unassigned) [20-4-B]",1 to 2,< 1,> 20
"COc1ccnc(N2CC3(CN(C(=O)N4c5ccc(Cl)cc5OCC4C)C3)C2)c1 (single isomer, unassigned) [20-8-B]",< 1,< 1,> 20
"COc1ccnc(N2CC3(CN(C(=O)N4c5ccc(Cl)cc5OCC4C)C3)C2)n1 (single isomer, unassigned) [20-9-B]",1 to 2,1 to 2,> 20
"Cc1nccnc1N1CC2(CN(C(=O)N3c4ccc(Cl)cc4OCC3C)C2)C1 (single isomer, unassigned) [20-10-A]",1 to 2,1 to 2,> 20
"Cc1ccnc(N2CC3(CN(C(=O)N4c5ccc(Cl)cc5OCC4C)C3)C2)n1 (single isomer, unassigned) [20-12-B]",1 to 2,1 to 2,> 20
CC1COc2cc(F)ccc2N1C(=O)N1CC2(C1)CN(c1noc3ccccc13)C2 (stereo not drawn) [4-3],< 1,< 1,> 20
O=C(N1CC2(C1)CN(c1ccccn1)C2)N1CCOc2cc(Cl)ccc21 [8-2],1 to 2,< 1,> 20

SMILES,"efflux ratio at 1 h, 10 μM [1]","efflux ratio at 1 h, 10 μM [2]","Papp A→B at 1 h, 10 μM (MDR1-MDCK cells) [×10⁻⁶ cm/s]"
O=C(N1CC2(C1)CN(c1cnccn1)C2)N1CCOc2cc(Cl)ccc21 [8-3],1 to 2,1 to 2,> 20
O=C(N1CC2(C1)CN(c1ccc(F)cn1)C2)N1CCOCc2cc(Cl)ccc21 [8-4],1 to 2,1 to 2,> 20
O=C(N1CC2(C1)CN(c1ccc(F)cn1)C2)N1CCc2cc(Cl)ccc21 [8-11],< 1,< 1,> 20
O=C(N1CC2(C1)CN(c1ccccn1)C2)N1CCOCc2cc(Cl)ccc21 [8-12],2 to 3,2 to 3,> 20
O=C(N1CC2(C1)CN(c1cnccn1)C2)N1CCc2cc(Cl)ccc21 [8-14],< 1,1 to 2,> 20
O=C(N1CC2(C1)CN(c1ccc(F)cn1)C2)N1CCOc2cc(Cl)ccc21 [9-7],1 to 2,< 1,> 20
"O=C(N1CC2(C1)CN(c1ccc(F)cn1)C2)N1CCC(O)c2cc(Cl)ccc21 (stereo not drawn) [13-1, (6-chloro-4-hydroxy-3,4-dihydroquinolin-1(2H)-yl)(6-(5-fluoropyridin-2-yl)-2,6-diazaspiro[3.3]heptan-2-yl)methanone]",> 3,> 3,> 20
"O=C(N1CC2(C1)CN(c1ccc(F)cn1)C2)N1CCC(F)(F)c2cc(Cl)ccc21 [17-1, (6-chloro-4,4-difluoro-3,4-dihydroquinolin-1(2H)-yl)(6-(5-fluoropyridin-2-yl)-2,6-diazaspiro[3.3]heptan-2-yl)methanone]",1 to 2,< 1,> 20
CC1COc2cc(Cl)ccc2N1C(=O)N1CC2(C1)CN(c1noc3cccnc13)C2 (stereo not drawn) [18-3],< 1,< 1,> 20
CC1COc2cc(Cl)c(F)cc2N1C(=O)N1CC2(C1)CN(c1cccnn1)C2 (stereo not drawn) [19-4],< 1,< 1,> 20
CC1COc2cc(F)c(F)cc2N1C(=O)N1CC2(C1)CN(c1ccc(F)cn1)C2 (stereo not drawn) [19-5],1 to 2,1 to 2,> 20
Cc1cncc(N2CC3(CN(C(=O)N4c5ccc(F)cc5OCC4C)C3)C2)n1 (stereo not drawn) [20-2],1 to 2,1 to 2,> 20
COc1ccnc(N2CC3(CN(C(=O)N4c5ccc(Cl)cc5OCC4C)C3)C2)c1 (stereo not drawn) [20-8],< 1,< 1,> 20
COc1ccnc(N2CC3(CN(C(=O)N4c5ccc(Cl)cc5OCC4C)C3)C2)n1 (stereo not drawn) [20-9],< 1,< 1,> 20
Cc1nccnc1N1CC2(CN(C(=O)N3c4ccc(Cl)cc4OCC3C)C2)C1 (stereo not drawn) [20-10],< 1,< 1,> 20
Cc1ccnc(N2CC3(CN(C(=O)N4c5ccc(Cl)cc5OCC4C)C3)C2)c1 (stereo not drawn) [20-11],< 1,< 1,> 20
